Data taken from US20040023862A1, “Uses of bombesin receptor 3” (SmithKline Beedham p. l. c., priority 2000, published 2004).
pEC50: −log10 of the molar value. Read-outs that look alike come from different tables or passages of the source. Non-standard residues stand in square brackets, D forms with d. Residues, ends and D or L forms follow the SMILES beside them. *: point of attachment. pGlu = O=C1CC[C@@H](C(=O)O)N1; Nle = CCCC[C@H](N)C(=O)O; βAla = NCCC(=O)O; NHPr = CCCN*

Biological target: T1, endogenous human BRS-3 in NCI-N417 cells (Homo sapiens, UniProt P32247)
T1 construct: Agonist Pharmacology at the Endogenous Human BRS-3 in NCI-N417 Cells; endogenous in cells; host or cells: NCI-N417 cells
T1 sequence (P32247 1-399): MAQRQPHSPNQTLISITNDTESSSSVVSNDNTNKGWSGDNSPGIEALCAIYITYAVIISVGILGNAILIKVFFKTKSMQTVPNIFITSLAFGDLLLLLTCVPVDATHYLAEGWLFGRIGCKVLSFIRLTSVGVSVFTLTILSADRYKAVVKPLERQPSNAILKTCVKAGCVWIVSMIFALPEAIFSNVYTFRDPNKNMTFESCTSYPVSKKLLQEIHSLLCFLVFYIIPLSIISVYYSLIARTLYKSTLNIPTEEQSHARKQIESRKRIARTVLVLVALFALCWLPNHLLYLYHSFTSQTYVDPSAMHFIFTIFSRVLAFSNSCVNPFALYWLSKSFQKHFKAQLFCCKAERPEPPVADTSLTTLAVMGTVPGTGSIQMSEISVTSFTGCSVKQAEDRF
Assay: Agonist pharmacology, FLIPR intracellular calcium (Fluo-3AM) in NCI-N417 cells
Format: cell-based
Protocol: Agonist Pharmacology at the Endogenous Human BRS-3 in NCI-N417 Cells
NCI-N417 cells were seeded into Costar 96 well black walled plates (30,000 cells per well), cultured overnight in RPMI 1640 medium containing 10% foetal calf serum and 1% L-glutamine, and then loaded with the cytoplasmic calcium indicator Fluo-3AM (4 μM) in the presence of 2.5 mM probenecid at 37° C. for 60 min. The cells were then washed 4× with, and finally resuspended in, Tyrode's medium containing 2.5 mM probenecid. Fluorescence was then monitored using a FLIPR (λEX=488 nm, λEM=540 nm) before and after the addition of various ligands (10 pM-10 μM), as described previously (Smart et al (1999). Br. J. Pharmacol. 128:1-4).

[1] = calcium mobilisation, FLIPR, NCI-N417 cells, efficacy in words

| Compound | Efficacy [1] | pEC50 | other results |
| --- | --- | --- | --- |
| CSCC[C@H](NC(=O)[C@H](CC(C)C)NC(=O)[C@H](Cc1cnc[nH]1)NC(=O)CNC(=O)[C@@H](NC(=O)[C@H](C)NC(=O)[C@H](Cc1c[nH]c2ccccc12)NC(=O)[C@H](CCC(N)=O)NC(=O)[C@H](CC(N)=O)NC(=O)CNC(=O)[C@H](CC(C)C)NC(=O)[C@H](CCCN=C(N)N)NC(=O)[C@H](CCC(N)=O)NC(=O)[C@@H]1CCC(=O)N1)C(C)C)C(N)=O [Bombesin] | – | – | Efficacy (calcium mobilisation, FLIPR, NCI-N417 cells, at 10 μM): 23% at 10 μM |
| CSCC[C@H](NC(=O)[C@H](Cc1ccccc1)NC(=O)[C@H](Cc1c[nH]cn1)NC(=O)CNC(=O)[C@@H](NC(=O)[C@H](C)NC(=O)[C@H](Cc1c[nH]c2ccccc12)NC(=O)[C@H](CCC(N)=O)NC(=O)[C@@H]1CCCN1C(=O)CNC(=O)CNC(=O)CNC(=O)[C@@H]1CCC(=O)N1)C(C)C)C(N)=O [PG-L] ([pGlu]GGGPQWAVGHFM-NH2; C-terminus assumed) | full | – | – |
| CSCC[C@H](NC(=O)[C@H](Cc1ccccc1)NC(=O)[C@H](Cc1c[nH]cn1)NC(=O)CNC(=O)[C@@H](NC(=O)[C@H](C)NC(=O)[C@H](Cc1c[nH]c2ccccc12)NC(=O)[C@H](CCC(N)=O)NC(=O)[C@@H]1CCCN1C(=O)[C@@H](NC(=O)[C@@H]1CCC(=O)N1)C(C)C)C(C)C)C(N)=O [Ranantensin] ([pGlu]VPQWAVGHFM-NH2; C-terminus assumed) | full | – | – |
| CCCC[C@H](NC(=O)[C@H](Cc1ccccc1)NC(=O)[C@H](Cc1c[nH]cn1)NC(=O)CNC(=O)[C@@H](NC(=O)[C@H](C)NC(=O)[C@H](Cc1c[nH]c2ccccc12)NC(=O)[C@H](CCC(N)=O)NC(=O)[C@H](N)Cc1ccccc1)C(C)C)C(N)=O [[D-Phe^1, Nle^9]litorin] | full | 5.96 | – |
| CCCNC(=O)[C@H](Cc1ccccc1)NC(=O)[C@H](Cc1c[nH]cn1)NC(=O)CNC(=O)[C@@H](NC(=O)[C@H](C)NC(=O)[C@H](Cc1c[nH]c2ccccc12)NC(=O)[C@H](CCC(N)=O)NC(=O)[C@H](N)Cc1ccccc1)C(C)C [[D-Phe^6, Phe^13]BN(6-13) propylamide] (H-[dF]QWAVGHF-NHPr; N-terminus assumed) | full | 6.83 | – |
| CCCNC(=O)[C@H](CC(C)C)NC(=O)[C@H](Cc1c[nH]cn1)NC(=O)CNC(=O)[C@@H](NC(=O)[C@H](C)NC(=O)[C@H](Cc1c[nH]c2ccccc12)NC(=O)[C@H](CCC(N)=O)NC(=O)[C@H](N)Cc1ccccc1)C(C)C [[D-Phe^6]BN(6-13) propylaniide] | full | 5.86 | – |
| CCCC[C@H](NC(=O)[C@H](Cc1ccccc1)NC(=O)[C@H](Cc1c[nH]cn1)NC(=O)CCNC(=O)[C@@H](NC(=O)[C@H](C)NC(=O)[C@H](Cc1c[nH]c2ccccc12)NC(=O)[C@H](CCC(N)=O)NC(=O)[C@H](N)Cc1ccc(O)cc1)C(C)C)C(N)=O [[D-Tyr^6, βAla^11, Phe^13, Nle^14]Bombesin(6-14)] (H-[dY]QWAV[βAla]HF[Nle]-NH2) | full | – | – |
| CCCC[C@H](NC(=O)[C@H](Cc1ccccc1)NC(=O)[C@H](Cc1cnc[nH]1)NC(=O)CCNC(=O)[C@@H](NC(=O)[C@H](C)NC(=O)[C@H](Cc1c[nH]c2ccccc12)NC(=O)[C@H](CCC(N)=O)NC(=O)[C@H](N)Cc1ccc(O)cc1)C(C)C)C(N)=O [[D-Tyr^6, βAla^11, Phe^13, Nle^14]Bombesin(6-14)] (H-[dY]QWAV[βAla]HF[Nle]-NH2) | – | – | EC50 (calcium mobilisation, FLIPR, NCI-N417 cells, ligands 10 pM-10 μM, read-out: pEG50 (the source's name) (converted)): 9.55 nM |
| AcNMB(3-10) | full | – | – |
